Experiments:
L1210 [1] = experiment: Antitumor activity against mouse L1210 cells allografted in mouse assessed as increase in host survival at 50 mg/kg, ip administered as single dose on day 1 following tumor implantation; assay type: functional; details: 24 h, route intraperitoneal
L1210 [2] = experiment: Antitumor activity against mouse L1210 cells allografted in mouse assessed as increase in host survival at 75 mg/kg, ip administered as single dose on day 1 following tumor implantation; assay type: functional; details: 24 h, route intraperitoneal
L1210 [3] = experiment: Antitumor activity against mouse L1210 cells allografted in mouse assessed as increase in host survival at 150 mg/kg, ip administered as single dose on day 1 following tumor implantation; assay type: functional; details: 24 h, route intraperitoneal
Mus musculus = experiment: Acute toxicity in mouse […] with mouse L1210 cells at 150 mg/kg, ip administered as single dose on day 1 following tumor implantation; assay type: organism-based; design: dose 150 mg/kg, route intraperitoneal; details: in vivo
L1210 [4] = experiment: Antitumor activity against mouse L1210 cells allografted in mouse assessed as increase in host survival at 200 mg/kg, ip administered as single dose on day 1 following tumor implantation; assay type: functional; details: 24 h, route intraperitoneal
L1210 [5] = experiment: Antitumor activity against mouse L1210 cells allografted in mouse assessed as increase in host survival at 25 mg/kg, ip administered as single dose on day 1 following tumor implantation; assay type: functional; details: 24 h, route intraperitoneal
L1210 [6] = experiment: Antitumor activity against mouse L1210 cells allografted in mouse assessed as increase in host survival at 100 mg/kg, ip administered as single dose on day 1 following tumor implantation; assay type: functional; details: 24 h, route intraperitoneal

Structure (SMILES) | survival at 50 mg/kg (L1210 [1]) [%] | survival at 75 mg/kg (L1210 [2]) [%] | survival at 150 mg/kg (L1210 [3]) [%] | Activity (Mus musculus) | survival at 200 mg/kg (L1210 [4]) [%] | survival at 25 mg/kg (L1210 [5]) [%] | survival at 100 mg/kg (L1210 [6]) [%]
Nc1nc(O)c2cc(CCc3ccc(C(=O)N[C@@H](CCC(=O)O)C(=O)O)cc3)ccc2n1 | 14 | 18 | 23 | Non-toxic | – | – | –
Nc1nc(O)c2cc(COc3ccc(C(=O)N[C@@H](CCC(=O)O)C(=O)O)cc3)ccc2n1 | – | 6 | 28 | Non-toxic | 14 | – | –
CN(Cc1cnc2nc(N)nc(N)c2n1)c1ccc(C(=O)N[C@@H](CCC(=O)O)C(=O)O)cc1 [METHOTREXATE] | 61 | 48 | – | – | – | 68 | 81
Nc1nc(O)c2cc(CSc3ccc(C(=O)N[C@@H](CCC(=O)O)C(=O)O)cc3)ccc2n1 | – | – | 22 | Non-toxic | – | – | 9

Reference: ChEMBL document CHEMBL3244077, “Sycnthesis of quinazoline analogues of folic acid modified at postion 10” (J Med Chem, 1977)
